From patent US9085607B2, “ACH-0142684 sodium salt polymorph, composition including the same, and method of manufacture thereof” (Achillion Pharmaceuticals Inc., priority 2013, dated 2015)
“Also recorded” adds a separate entry of the source. Values belong to the molecule of their own block, whether it stands above or below them.

Experiments:
Type in all cases: physicochemical
[1] = Solubility in screen solvents derived from loading in solvent and dissolution; conditions: organic solvent or mixture, thermodynamic from solid
Description: They were selected based on a diverse range of properties including dielectric constants, boiling points, and H-bonding that are important to crystallization and crystal-form discovery. The values in TABLE 2 are derived from ACH-0142684 loading in solvent and dissolution. The symbol † indicates the solubility value is found in TABLE 1.

[2] = Solubility in water after temperature cycling between 40° C. and 5° C.; conditions: thermodynamic from solid, cycling between 40° C. and 5° C. for 2 days
Experimental: (§1) The solubility of ACH-0142684 sodium salt was determined at room temperature using the following procedure. The input material (˜10 mg) was weighed into each of 12 vials, followed by addition of a solvent in multiple aliquots between 50μL to 10-mL at room temperature. Samples were visually inspected for complete dissolution after each solvent addition. The solubility of crystalline ACH-0142684 sodium salt is summarized in TABLE 1, which provides a solubility assessment of amorphous API in 12 solvents. The solubility of API-0142684 in water after temperature cycling between 40° C. and 5° C. for 2 days is ˜50 mg/ml.

[3] = Solubility assessment at room temperature by solvent aliquot addition and visual inspection; conditions: thermodynamic from solid
Experimental: as §1

[4] = Competitive ripening study between Polymorphs A and G; conditions: slurry in 2-propanol, room temperature, sample isolated after 48 hours
Experimental: A competitive ripening study was conducted between Polymorphs A and G at room temperature to determine their relative stabilities. Approximately 5 mg of Polymorphs A and G were added to a 2-mL HPLC vial containing 0.5 mL of 2-propanol. The suspension was stirred at room temperature for two days. Aliquots of the slurry were filtered after 20 and 48 hours. The isolated solids were analyzed by PXRD to determine any form conversion.

[5] = Crystallization screening (temperature cycling, cooling, evaporation, vapor diffusion), form stability; conditions: 48 solvents/mixtures
Experimental: Crystallization experiments were conducted in 48 solvents and aqueous mixtures using the following three crystallization modes:
Temperature-cycled ripening of API slurries between 5-40° C. for 48 hours;
Cooling of saturated solutions prepared at RT to 5° C. (24 hours);
Slow evaporation of saturated solutions at RT.In addition, 10 vapor diffusion experiments were also conducted (Table 4) at RT. These solvent systems were selected based on API solubility, and the miscibility and boiling points of solvents and anti-solvents.
All solid outputs from the screen were isolated and analyzed by FT-Raman spectroscopy and/or PXRD. The samples were then sorted into polymorphs based on Raman spectral match. Representative samples from each of the polymorphs were further analyzed by additional techniques (PXRD, DSC, TGA-IR, PLM, etc.) as appropriate and as sample quantity permitted.
Characterization data and more detailed discussion of the different crystal forms are summarized in the following sections. In TABLES 3 and 4, A, B, C, D, or E, etc. indicates the respective crystalline polymorph obtained. “Amorphous” indicates an amorphous solid was obtained, (-) indicates the experiment was not performed, and a blank space indicates no solid was obtained. The screening study led to one hydrated form (Polymorph A) and multiple solvated forms (Polymorph s B-E). […]

[6] = Vacuum oven drying and re-analysis by PXRD for form change
Experimental: PXRD diffractograms were acquired using either a Bruker D8 Discovery diffractometer with a HI-STAR GADDS detector or PANalytical X′Pert Pro diffractometer on Si zero-background wafers. All diffractograms were collected using Cu Kα (45 kV/40 mA) radiation and a step size of 0.02° 2θ unless noted otherwise.
A sample of Polymorph A was dried in a vacuum oven at 55° C. overnight with a small flow of nitrogen. FIG. 1 is a graph showing the results of X-ray powder diffraction analysis of pre-dried (lower trace) and post-dried (upper trace) Polymorph A sample. FIG. 2 is a graph showing the results of differential scanning calorimetry overlay of a pre-dried (lower trace) and post-dried (upper trace) Polymorph A sample. FIG. 3 is a graph showing the results of thermogravimetric analysis of the Form A polymorph.
A small amount of Polymorph B was dried in a vacuum oven at 50° C. for 16 hours and the sample was re-analyzed by PXRD to observe if there were any form changes.

- solubility ([1]; 1,4-Dioxane): < 50 mg/mL
- solubility ([1]; 1-Butanol): < 50 mg/mL
- solubility ([1]; 1-Methoxy-2-propanol): > 80 mg/mL
- solubility ([1]; 1-propanol): < 50 mg/mL
- solubility ([1]; 2-Butanone): < 50 mg/mL
- solubility ([1]; 2-Methoxyethyl ether): < 90 mg/mL
- solubility ([1]; 2-methoxyethanol): > 93 mg/mL
- solubility ([1]; 2-propanol with 20 vol % water, 2-propanol: 20 vol % Water): < 95 mg/mL
- solubility ([1]; 2-propanol: 5 vol % Water): < 50 mg/mL
- solubility ([1]; 2-propanol: 10 vol %): < 50 mg/mL
- solubility ([1]; 4-Methyl-2-pentanone): < 50 mg/mL
- solubility ([1]; Acetone: 5 vol % Water): < 50 mg/mL
- solubility ([1]; Acetone: 10 vol % Water): < 99 mg/mL
- solubility ([1]; Acetonitrile: 5 vol % Water): < 50 mg/mL
- solubility ([1]; Acetonitrile: 10 vol %): < 50 mg/mL
- solubility ([1]; Chlorobenzene): < 50 mg/mL
- solubility ([1]; Chloroform): > 153 mg/mL
- solubility ([1]; Cyclohexane): < 50 mg/mL
- solubility ([1]; Cyclohexanone): > 87 mg/mL
- solubility ([1]; DMF): > 93 mg/mL
- solubility ([1]; Dimethyl Carbonate): < 50 mg/mL
- solubility ([1]; Dioxane: 10 vol % Water): > 93 mg/mL
- solubility ([1]; EtOAc:pentane (1:1)): < 50 mg/mL
- solubility ([1]; EtOAc:pentane (1:4)): < 50 mg/mL
- solubility ([1]; EtOAc:pentane (1:10)): < 50 mg/mL
- solubility ([1]; EtOH): < 72 mg/mL
- solubility ([1]; Isopropyl acetate): < 50 mg/mL
- solubility ([1]; Isopropyl ether): < 50 mg/mL
- solubility ([1]; MeOAc): < 50 mg/mL
- solubility ([1]; Methanol: 5 vol % Water): > 177 mg/mL
- solubility ([1]; Methanol: 10 vol % Water): > 85 mg/mL
- solubility ([1]; Pentane): < 50 mg/mL
- solubility ([1]; THF: 5 vol % Water): > 85 mg/mL
- solubility ([1]; THF: 10 vol % Water): > 107 mg/mL
- solubility ([1]; acetone with 20 vol % water, Acetone: 20 vol % Water): < 96 mg/mL
- solubility ([1]; nitromethane): < 50 mg/mL
SMILES: COc1ccc2c(O[C@@H]3C[C@H]4C(=O)N[C@]5(C(=O)NS(=O)(=O)C6CC6)C[C@H]5/C=C\CCCCC[C@H](CC(=O)N5CCCC(F)(F)C5)C(=O)N4C3)cc(-c3nc(C(C)C)cs3)nc2c1C [ACH-0142684]

SMILES: COc1ccc2c(O[C@@H]3C[C@H]4C(=O)N[C@]5(C(=O)[N-]S(=O)(=O)C6CC6)C[C@H]5/C=C\CCCCC[C@H](CC(=O)N5CCCC(F)(F)C5)C(=O)N4C3)cc(-c3nc(C(C)C)cs3)nc2c1C.[Na+] [ACH-0142684 sodium salt]
- solubility at 2 days [2]: ~50 mg/mL
- solubility ([3]; organic solvent or mixture, ACN): 1 to 1.2 mg/mL
- solubility ([3]; organic solvent or mixture, DCM): 49 to 98 mg/mL
- solubility ([3]; organic solvent or mixture, DMSO): 97 to 129 mg/mL
- solubility ([3]; organic solvent or mixture, EtOAc): < 1.02 mg/mL
- solubility ([3]; organic solvent or mixture, IPA): 1.1 to 1.3 mg/mL
- solubility ([3]; organic solvent or mixture, MTBE): < 0.93 mg/mL
- solubility ([3]; organic solvent or mixture, MeOH): 92 to 123 mg/mL
- solubility ([3]; organic solvent or mixture, TFE): 100 to 133 mg/mL
- solubility ([3]; organic solvent or mixture, THF): 9.2 to 18.4 mg/mL
- solubility ([3]; organic solvent or mixture, Toluene): < 1.04 mg/mL
- solubility ([3]; organic solvent or mixture, acetone): 5.7 to 14 mg/mL
- solubility ([3]; Water): < 0.99 mg/mL

SMILES: COc1ccc2c(O[C@@H]3C[C@H]4C(=O)N[C@]5(C(=O)[N-]S(=O)(=O)C6CC6)C[C@H]5/C=C\CCCCC[C@H](CC(=O)N5CCCC(F)(F)C5)C(=O)N4C3)cc(-c3nc(C(C)C)cs3)nc2c1C.[Na+] [Polymorph A]
- Relative stability of Polymorphs A and G (PXRD of isolated solids) [4]: the more stable form at room temperature
- Form stability indicated by crystallization screen outcome [5]: the most stable form at the crystallization conditions studied; also recorded: stable form at/around room temperature
- Form stability on drying (PXRD of dried sample) ([6]; vacuum oven at 55° C. overnight, small flow of nitrogen): does not show any change in form or crystallinity

SMILES: COc1ccc2c(O[C@@H]3C[C@H]4C(=O)N[C@]5(C(=O)[N-]S(=O)(=O)C6CC6)C[C@H]5/C=C\CCCCC[C@H](CC(=O)N5CCCC(F)(F)C5)C(=O)N4C3)cc(-c3nc(C(C)C)cs3)nc2c1C.[Na+] [Polymorph B]
- Form stability on drying (PXRD of dried sample) ([6]; vacuum oven at 50° C. for 16 hours): does not show any change in form but the peaks appear to be broader
